Reference: US20070197599A1, “HYDROXYLAMINES AND DERIVATIVES AS ANTI-ANGIOGENIC AGENTS” (priority 2006, published 2007)
Like-named read-outs stand apart in the source and are kept apart here.

Legend:
[1] = In vitro stability of Compound 1 in dog plasma; type: in vitro ADME; details: for Concentration of Compound 1 in plasma: 1000 ng/mL added; for half-life at 1000 ng/mL: dog, pooled dog plasma
Method: (§1) The active metabolite of Compound 1 (Cyclopropanecarboxylic acid 1-hydroxy-2,2,6,6-tetramethyl-piperidin-4-yl ester) is TPH. The objective of this analysis was to determine the in vitro half-life of Compound 1 in rat, rabbit, dog, and human plasma under standardized incubation conditions.
(§2) Compound 1 was incubated with pooled rat, rabbit, dog, and human plasma for various times under standardized incubation conditions. Pre-labeled tubes containing pooled plasma from rats, rabbits, dogs, and humans were pre-incubated in a shaking 37° C. water bath. A Compound 1 solution was added to the tubes at a final concentration of 1000 ng/mL. Time zero samples (n=5) were immediately removed and transferred into tubes containing a stabilizer solution (DTPA, acetylcysteine and ascorbic acid), the LC/MS/MS assay internal standard and methanol. […] The tubes were vortexed, placed on ice, followed by centrifugation. One hundred-μL aliquots of the supernatant were transferred into HPLC sample vials. Additional tubes (n=5 at each time point) were incubated for 5, 10, 20, 30, 60, 120, and 240 minutes at 37° C. and thereafter processed. The amount of Compound 1 and TPH in each incubated sample was quantified using validated LC/MS/MS assays.

[2] = In vitro stability of Compound 1 in rabbit plasma; type: in vitro ADME; details: for Concentration of Compound 1 in plasma: 1000 ng/mL added; for half-life at 1000 ng/mL: rabbit, pooled rabbit plasma
Method: as §1, §2

[3] = In vitro stability of Compound 1 in human plasma; type: in vitro ADME; details: for Concentration of Compound 1 in plasma: 1000 ng/mL added; for half-life at 1000 ng/mL: human, pooled human plasma
Method: as §1, §2

[4] = In vitro stability of Compound 1 in rat plasma; type: in vitro ADME; details: for Concentration of Compound 1 in plasma: 1000 ng/mL added; for half-life at 1000 ng/mL: rat, pooled rat plasma
Method: as §1, §2

[5] = Single-dose 10-minute intravenous infusion toxicokinetics in Sprague-Dawley rats; type: in vivo; details: for Cmax: in vivo, read-out: Cmax of Compound 1; for Cmax / Tmax: 10-minute iv infusion; for concentration at 0.167 hr: 0.167 hr from start of infusion; for Tmax: read-out: Tmax of Compound 1
Method: Blood for toxicokinetic evaluations was collected at pre-determined time points during and after the infusion.
All pharmacokinetic analyses were performed using Kinetica®, version 4.2 (Innaphase, Philadelphia, Pa.).
Cmax is the observed maximum plasma concentration
Tmax is the time Cmax is reached
T1/2 is the elimination half-life
The plasma concentrations were rounded to the nearest tenth of a ng/mL before the calculations. […] Nominal time points were used for all calculations.

[6] = average, read-out: in vitro half-life

## CC1(C)CC(OC(=O)C2CC2)CC(C)(C)N1O.Cl [Compound 1, 1-hydroxy-4-cyclopropanecarbonyloxy-2,2,6,6-tetramethylpiperidine hydrochloride]
[1]; 37° C., incubation 0 min
  Concentration of Compound 1 in plasma: 771.12 ± 21.68 ng/mL
[1]; 37° C., incubation 5 min
  Concentration of Compound 1 in plasma: 804.93 ± 17.45 ng/mL
[1]; 37° C., incubation 10 min
  Concentration of Compound 1 in plasma: 811.14 ± 21.06 ng/mL
[1]; 37° C., incubation 20 min
  Concentration of Compound 1 in plasma: 809.01 ± 18.58 ng/mL
[1]; 37° C., incubation 30 min
  Concentration of Compound 1 in plasma: 789.53 ± 13.73 ng/mL
[1]; 37° C., incubation 60 min
  Concentration of Compound 1 in plasma: 717.22 ± 25.73 ng/mL
[1]; 37° C., incubation 120 min
  Concentration of Compound 1 in plasma: 608.14 ± 25.96 ng/mL
[1]; 37° C., incubation 240 min
  Concentration of Compound 1 in plasma: 428.20 ± 12.03 ng/mL
[1]; average, read-out: in vitro half-life (converted)
  half-life at 1000 ng/mL: 240 min
[1]; in vitro, 37° C., read-out: T½
  half-life at 1000 ng/mL: 240 min
[2]; 37° C., incubation 0 min
  Concentration of Compound 1 in plasma: 502.75 ± 74.66 ng/mL
[2]; 37° C., incubation 5 min
  Concentration of Compound 1 in plasma: 14.56 ± 3.35 ng/mL
[2]; 37° C., incubation 10 min
  Concentration of Compound 1 in plasma: 0.00 ± 0.00 ng/mL
[2]; 37° C., incubation 20 min
  Concentration of Compound 1 in plasma: 0.00 ± 0.00 ng/mL
[2]; 37° C., incubation 30 min
  Concentration of Compound 1 in plasma: 0.00 ± 0.00 ng/mL
[2]; 37° C., incubation 60 min
  Concentration of Compound 1 in plasma: 0.00 ± 0.00 ng/mL
[2]; 37° C., incubation 120 min
  Concentration of Compound 1 in plasma: 0.00 ± 0.00 ng/mL
[2]; 37° C., incubation 240 min
  Concentration of Compound 1 in plasma: 0.00 ± 0.00 ng/mL
[2]; [6]
  half-life at 1000 ng/mL: 1 min
[2]; in vitro, 37° C., read-out: T½
  half-life at 1000 ng/mL: 0.98 min
[3]; 37° C., incubation 0 min
  Concentration of Compound 1 in plasma: 775.47 ± 22.50 ng/mL
[3]; 37° C., incubation 5 min
  Concentration of Compound 1 in plasma: 593.43 ± 7.55 ng/mL
[3]; 37° C., incubation 10 min
  Concentration of Compound 1 in plasma: 503.18 ± 20.90 ng/mL
[3]; 37° C., incubation 20 min
  Concentration of Compound 1 in plasma: 394.69 ± 6.72 ng/mL
[3]; 37° C., incubation 30 min
  Concentration of Compound 1 in plasma: 316.37 ± 7.67 ng/mL
[3]; 37° C., incubation 60 min
  Concentration of Compound 1 in plasma: 162.41 ± 9.77 ng/mL
[3]; 37° C., incubation 120 min
  Concentration of Compound 1 in plasma: 32.22 ± 2.63 ng/mL
[3]; 37° C., incubation 240 min
  Concentration of Compound 1 in plasma: 0.00 ± 0.00 ng/mL
[3]; [6]
  half-life at 1000 ng/mL: 28 min
[3]; in vitro, 37° C., read-out: T½
  half-life at 1000 ng/mL: 27.8 min
[4]; 37° C., incubation 0 min
  Concentration of Compound 1 in plasma: 806.50 ± 86.77 ng/mL
[4]; 37° C., incubation 5 min
  Concentration of Compound 1 in plasma: 770.32 ± 20.66 ng/mL
[4]; 37° C., incubation 10 min
  Concentration of Compound 1 in plasma: 745.77 ± 15.50 ng/mL
[4]; 37° C., incubation 20 min
  Concentration of Compound 1 in plasma: 682.88 ± 16.94 ng/mL
[4]; 37° C., incubation 30 min
  Concentration of Compound 1 in plasma: 613.79 ± 25.84 ng/mL
[4]; 37° C., incubation 60 min
  Concentration of Compound 1 in plasma: 480.48 ± 10.69 ng/mL
[4]; 37° C., incubation 120 min
  Concentration of Compound 1 in plasma: 277.94 ± 5.55 ng/mL
[4]; 37° C., incubation 240 min
  Concentration of Compound 1 in plasma: 80.70 ± 2.02 ng/mL
[4]; [6]
  half-life at 1000 ng/mL: 70 min
[4]; in vitro, 37° C., read-out: T½
  half-life at 1000 ng/mL: 69.5 min
[5]; 10 mg/kg
  plasma level of Compound 1 at one hour after termination of the infusion: not quantifiable
[5]; both sexes, Sprague-Dawley, rat, 10 mg/kg
  Cmax: 980 ng/mL
[5]; both sexes, Sprague-Dawley, rat, 30 mg/kg
  Cmax: 3490 ng/mL
[5]; both sexes, Sprague-Dawley, rat, 100 mg/kg
  Cmax: 29000 ng/mL
[5]; both sexes, Sprague-Dawley, rat, 200 mg/kg
  Cmax: 89700 ng/mL
[5]; both sexes, Sprague-Dawley, rat, plasma, 10 mg/kg iv infusion, read-out: Plasma concentration of Compound 1
  concentration at 0.167 hr: 980 ± 311 ng/mL
[5]; both sexes, Sprague-Dawley, rat, plasma, 10 mg/kg iv infusion, 1.167 hr, below 50 ng/mL assigned zero, read-out: Plasma concentration of Compound 1
  concentration at 1.167 hr: 0 ng/mL
[5]; both sexes, Sprague-Dawley, rat, plasma, 10 mg/kg iv infusion, 2.167 hr, below 50 ng/mL assigned zero, read-out: Plasma concentration of Compound 1
  concentration at 2.167 hr: 0 ng/mL
[5]; both sexes, Sprague-Dawley, rat, plasma, 10 mg/kg iv infusion, below 50 ng/mL assigned zero, read-out: Plasma concentration of Compound 1
  concentration at 4.167 hr: 0 ng/mL
[5]; both sexes, Sprague-Dawley, rat, plasma, 10 mg/kg
  Tmax: 10 min
[5]; both sexes, Sprague-Dawley, rat, plasma, 30 mg/kg iv infusion, read-out: Plasma concentration of Compound 1
  concentration at 0.167 hr: 3490 ± 809 ng/mL
[5]; both sexes, Sprague-Dawley, rat, plasma, 30 mg/kg iv infusion, below 50 ng/mL assigned zero, read-out: Plasma concentration of Compound 1
  concentration at 4.167 hr: 0 ng/mL
[5]; both sexes, Sprague-Dawley, rat, plasma, 30 mg/kg
  Tmax: 10 min
[5]; both sexes, Sprague-Dawley, rat, plasma, 100 mg/kg iv infusion, read-out: Plasma concentration of Compound 1
  concentration at 0.167 hr: 29000 ± 15100 ng/mL
[5]; both sexes, Sprague-Dawley, rat, plasma, 100 mg/kg iv infusion, below 50 ng/mL assigned zero, read-out: Plasma concentration of Compound 1
  concentration at 4.167 hr: 0 ng/mL
[5]; both sexes, Sprague-Dawley, rat, plasma, 100 mg/kg
  Tmax: 10 min
[5]; both sexes, Sprague-Dawley, rat, plasma, 200 mg/kg iv infusion, read-out: Plasma concentration of Compound 1
  concentration at 0.167 hr: 89700 ± 18100 ng/mL
[5]; both sexes, Sprague-Dawley, rat, plasma, 200 mg/kg iv infusion, below 50 ng/mL assigned zero, read-out: Plasma concentration of Compound 1
  concentration at 4.167 hr: 0 ng/mL
[5]; both sexes, Sprague-Dawley, rat, plasma, 200 mg/kg
  Tmax: 10 min
[5]; suggested by the results, half-life not determinable
  clearance of Compound 1 in rats: very rapid
[5]; three higher dosages of 30 to 200 mg/kg
  plasma levels of Compound 1 at four hours after termination of the infusion: not quantifiable
